In patent publication US4322339A, “Pharmacologically active peptides” (Eli Lilly and Company, priority 1980, dated 1982):

Legend:
mouse (Cox Standard) = assay: mouse hot plate test (mouse jump); format: in vivo; settings: subcutaneous injection, hot plate 52° C., 15 minutes after administration
enkephalin (δ) receptor = biological target: T1, enkephalin (δ) receptor (Mus musculus, UniProt P32300); assay: mouse vas deferens assay; format: tissue-based; settings: concentration causing depression of 50% of the electrically evoked contraction; field stimulation 0.15 Hz, 1 msec., 40 V; 37° C.
T1 construct: from tissue; host or cells: isolated mouse vas deferens (Cox mice, 30-40 g)
Experimental: In the mouse vas deferens test, single mouse vas deferens from mature mice (Cox, 30-40 g.) are suspended in 3 ml. of modified Kreb's solution aerated with 95% O2 -5% CO2 and maintained at 37° C. The twitch induced by field stimulation (0.15 Hz, 1 msec., 40 V) is recorded on a polygraph via an isometric transducer. The test compound is added to the bath in 20 to 30 μl. aliquots. A dose-response curve is constructed by cumulative addition of appropriate amounts of the compound to the bath. Comparison of relative agonist potency at the δ receptor is made on the basis of IC50 values (concentration causing depression of 50% of the electrically evoked contraction).

T1 sequence (P32300 whole entry): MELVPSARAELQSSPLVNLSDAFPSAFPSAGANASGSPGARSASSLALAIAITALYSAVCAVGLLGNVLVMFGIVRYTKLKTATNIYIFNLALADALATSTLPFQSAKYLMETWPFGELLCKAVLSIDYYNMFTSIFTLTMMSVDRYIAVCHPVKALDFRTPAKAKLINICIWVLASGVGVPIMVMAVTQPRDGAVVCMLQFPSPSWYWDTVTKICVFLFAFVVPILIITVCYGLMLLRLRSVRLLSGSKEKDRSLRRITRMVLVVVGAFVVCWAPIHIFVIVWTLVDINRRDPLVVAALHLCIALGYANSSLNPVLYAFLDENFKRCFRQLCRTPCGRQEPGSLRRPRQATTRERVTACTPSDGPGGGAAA

| Structure (SMILES) | Mouse Jump ED50 (mouse (Cox Standard); Cox Standard mice) | IC50 (enkephalin (δ) receptor) | Mouse Jump ED50 (mouse (Cox Standard); run using Harlan ND4 mice) |
| --- | --- | --- | --- |
| CSCC[C@@H](C(N)=O)N(C)C(=O)[C@H](Cc1cccc(C)c1)NC(=O)CNC(=O)[C@@H](C)NC(=O)[C@@H](N)Cc1ccc(O)cc1 [CH3, L-Tyrosyl-D-alanyl-glycyl-L-m-methylphenylalanyl-L-(N^α -methyl)methioninamide] | 0.33 mg/kg | 2.73 nM |  |
| CSCC[C@@H](C(N)=O)N(C)C(=O)[C@H](Cc1cccc(I)c1)NC(=O)CNC(=O)[C@@H](C)NC(=O)[C@@H](N)Cc1ccc(O)cc1 [I, H-L-Tyr-D-Ala-Gly-L-Phe(I)-L-(N-Me)Met-NH2] |  | 2.1 nM |  |
| COc1cccc(C[C@H](NC(=O)CNC(=O)[C@@H](C)NC(=O)[C@@H](N)Cc2ccc(O)cc2)C(=O)N(C)[C@@H](CCSC)C(N)=O)c1 [OMe, L-Tyrosyl-D-alanyl-glycyl-L-m-methoxyphenylalanyl-L-(N^α -methyl)methioninamide] |  | 2.92 nM | 0.15 mg/kg |
| CSCC[C@@H](C(N)=O)N(C)C(=O)[C@H](Cc1cccc(Br)c1)NC(=O)CNC(=O)[C@@H](C)NC(=O)[C@@H](N)Cc1ccc(O)cc1 [Br, L-Tyrosyl-D-alanyl-glycyl-L-m-bromophenylalanyl-L-(N^α -methyl)methioninamide] | 0.36 mg/kg | 0.49 nM |  |
| CSCC[C@@H](C(N)=O)N(C)C(=O)[C@H](Cc1cccc(Cl)c1)NC(=O)CNC(=O)[C@@H](C)NC(=O)[C@@H](N)Cc1ccc(O)cc1 [Cl, L-Tyrosyl-D-alanyl-glycyl-L-m-chlorophenylalanyl-L-(N^α -methyl)methioninamide] | 0.11 mg/kg | 0.71 nM |  |
| CSCC[C@@H](C(N)=O)N(C)C(=O)[C@H](Cc1ccccc1)NC(=O)CNC(=O)[C@@H](C)NC(=O)[C@@H](N)Cc1ccc(O)cc1 [H, reference compound] | 0.36 mg/kg | 12.2 nM |  |
| CSCC[C@@H](C(N)=O)N(C)C(=O)[C@H](Cc1cccc(C(F)(F)F)c1)NC(=O)CNC(=O)[C@@H](C)NC(=O)[C@@H](N)Cc1ccc(O)cc1 [CF3, L-Tyrosyl-D-alanyl-glycyl-L-m-trifluoro-methylphenylalanyl-L-(N^α-methyl)methioninamide] | 0.33 mg/kg | 1.78 nM |  |
